According to PubChem BioAssay (NCI):
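Method: 48-hour compound exposure of cells in 96-well plates, five concentrations, linear interpolation of endpoints. The concentration for full growth arrest is given as TGI.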

Tests used:
Assay in all cases: NCI-60 cell line screen, 48 h
[1] = system: SF-268 CNS
[2] = system: UACC-62 melanoma
[3] = system: IGROV1 ovarian
[4] = system: NCI-H522 lung
[5] = system: OVCAR-3 ovarian
[6] = system: SK-OV-3 ovarian
[7] = system: MOLT-4 leukemia
[8] = system: HT29 colon
[9] = system: CAKI-1 renal
[10] = system: BT-549 breast
[11] = system: U251 CNS
[12] = system: SK-MEL-28 melanoma
[13] = system: M14 melanoma
[14] = system: A498 renal
[15] = system: HCT-116 colon
[16] = system: SW-620 colon
[17] = system: NCI-H460 lung
[18] = system: DU-145 prostate
[19] = system: MDA-MB-435
[20] = system: SN12C renal
[21] = system: TK-10 renal
[22] = system: OVCAR-5 ovarian
[23] = system: CCRF-CEM leukemia
[24] = system: SNB-19 CNS
[25] = system: COLO 205 colon
[26] = system: OVCAR-4 ovarian
[27] = system: NCI-H23 lung
[28] = system: SK-MEL-2 melanoma
[29] = system: HOP-62 NSCLC
[30] = system: HOP-92 NSCLC
[31] = system: SK-MEL-5 melanoma
[32] = system: SR leukemia
[33] = system: A549 NSCLC
[34] = system: MALME-3M melanoma
[35] = system: SNB-75 CNS
[36] = system: HCC-2998 colon
[37] = system: KM12 colon
[38] = system: MDA-N
[39] = system: MDA-MB-231 breast
[40] = system: RPMI-8226 leukemia
[41] = system: EKVX NSCLC
[42] = system: SF-295 CNS
[43] = system: HCT-15 colon
[44] = system: UO-31 renal
[45] = system: PC-3 prostate
[46] = system: UACC-257 melanoma
[47] = system: OVCAR-8 ovarian
[48] = system: HS 578T breast
[49] = system: MCF7 breast
[50] = system: T-47D breast
[51] = system: HL-60(TB) leukemia
[52] = system: K-562 leukemia
[53] = system: SF-539 CNS
[54] = system: ACHN renal
[55] = system: NCI/ADR-RES ovarian
[56] = system: RXF 393 renal
[57] = system: 786-0 renal
[58] = system: LOX IMVI melanoma
[59] = system: NCI-H226 lung

COc1ccc(CC(CO)NC(=O)OCc2ccccc2)cc1Oc1ccc(CC(CO)NC(=O)OCc2ccccc2)cc1 (configuration not stated)
TGI [1]: 29.4 µM
TGI [2]: 29.5 µM
TGI [3]: 29.3 µM
TGI [4]: 18.4 µM
TGI [5]: 27.4 µM
TGI [6]: 28.8 µM
TGI [7]: 34.5 µM
TGI [8]: 23.6 µM
TGI [9]: 44.5 µM
TGI [10]: 32.3 µM
TGI [11]: 63.9 µM
TGI [12]: 54.9 µM
TGI [13]: 23.3 µM
TGI [14]: 34.9 µM
TGI [15]: 32.3 µM
TGI [16]: > 100 µM
TGI [17]: 66.6 µM
TGI [18]: 46 µM
TGI [19]: > 100 µM
TGI [20]: 39.3 µM
TGI [21]: 41.5 µM
TGI [22]: 30.9 µM
TGI [23]: 66.6 µM
TGI [24]: 51.8 µM
TGI [25]: 64.9 µM
TGI [26]: > 100 µM
TGI [27]: 33.8 µM
TGI [28]: 32.4 µM
TGI [29]: 31.8 µM
TGI [30]: 46.1 µM
TGI [31]: > 100 µM
TGI [32]: > 100 µM
TGI [33]: 27.2 µM
TGI [34]: 31.4 µM
TGI [35]: 11.7 µM
TGI [36]: 93.6 µM
TGI [37]: 26.9 µM
TGI [38]: 54.1 µM
TGI [39]: 36 µM
TGI [40]: 30.9 µM
TGI [41]: 19.1 µM
TGI [42]: 24.6 µM
TGI [43]: > 100 µM
TGI [44]: 31.4 µM
TGI [45]: 27.1 µM
TGI [46]: 61.4 µM

O=C1NCCCc2nonc21
TGI [1]: > 100 µM
TGI [2]: > 100 µM
TGI [3]: > 100 µM
TGI [47]: > 100 µM
TGI [5]: > 100 µM
TGI [6]: > 100 µM
TGI [48]: > 100 µM
TGI [7]: > 100 µM
TGI [8]: > 100 µM
TGI [49]: > 100 µM
TGI [9]: > 100 µM
TGI [50]: > 100 µM
TGI [51]: > 100 µM
TGI [11]: > 100 µM
TGI [12]: > 100 µM
TGI [13]: > 100 µM
TGI [15]: > 100 µM
TGI [52]: > 100 µM
TGI [16]: > 100 µM
TGI [17]: > 100 µM
TGI [18]: > 100 µM
TGI [19]: > 100 µM
TGI [20]: > 100 µM
TGI [53]: > 100 µM
TGI [21]: > 100 µM
TGI [22]: > 100 µM
TGI [23]: > 100 µM
TGI [24]: > 100 µM
TGI [25]: > 100 µM
TGI [26]: > 100 µM
TGI [27]: > 100 µM
TGI [28]: > 100 µM
TGI [29]: > 100 µM
TGI [54]: > 100 µM
TGI [30]: > 100 µM
TGI [31]: > 100 µM
TGI [32]: > 100 µM
TGI [33]: > 100 µM
TGI [34]: > 100 µM
TGI [35]: > 100 µM
TGI [36]: > 100 µM
TGI [37]: > 100 µM
TGI [38]: > 100 µM
TGI [55]: > 100 µM
TGI [56]: > 100 µM
TGI [39]: > 100 µM
TGI [40]: > 100 µM
TGI [41]: > 100 µM
TGI [57]: > 100 µM
TGI [42]: > 100 µM
TGI [58]: > 100 µM
TGI [43]: > 100 µM
TGI [44]: > 100 µM
TGI [45]: > 100 µM
TGI [59]: > 100 µM
TGI [46]: > 100 µM
